Values quoted from earlier work as cited in patent US20240269083A1, “PROLONGED-RELEASE PHARMACEUTICAL COMPOSITION FOR ORAL ADMINISTRATION OF SULTIAME” (ADVICENNE, priority 2021, published 2024).

System: erythrocytes
Settings: single doses of Ospolot, fasting, healthy subjects

For `NS(=O)(=O)c1ccc(N2CCCCS2(=O)=O)cc1` [sultiame, Sultiame], which affinity for erythrocytes is on record?
Its affinity for erythrocytes is “very strong affinity for erythrocytes”.
